These results are taken from US20130040898A1, “METHODS OF TREATMENT OF PATIENTS AT INCREASED RISK OF DEVELOPMENT OF ISCHEMIC EVENTS AND COMPOUNDS HEREOF” (priority 2010, published 2013).

The conditions of series [1]: depends on administration form and/or dosage; cited from earlier work.
Series [2] concerns platelet aggregation in whole blood. Briefly: Platelet aggregation in whole blood evaluated by Multiplate. The class given is cell-based. From the text:
FIG. 2: MultiPlate continuously records platelet aggregation. The increase of impedance by the attachment of platelets onto the Multiplate sensors is transformed to arbitrary aggregation units (AU) and plotted against time. […] Hereby, the effect on the endothelium of PGI2 can be employed in conjunction with treatment with antithrombotic agents such as Aspirin (ASA), platelet ADP—and a platelet inhibitor, such as GPIIb/IIIa receptor antagonists without increased risk of bleeding in this high-risk population. The term “Mulitplate” refers to an applied platelet aggregometer/platelet function analyzer utilizing the analysis of whole blood. Whole blood is the physiological environment where platelet function takes place in vivo, and the use of whole blood for in-vitro testing eliminates the need for time-consuming centrifugation steps required for Born aggregation measurements. The use of a small amount of whole blood (0.3 ml per test) allows the differentiated assessment of platelet function without drawing large amounts of blood (as required for analysis of Born aggregation) and facilitates the analysis of blood from children and also in experimental settings.

Series [3] has as its system thrombus formation. Briefly: Thrombus formation evaluated by viscoelastical haemostatic assay, thrombelastography (TEG). The class given is cell-based. An excerpt: FIG. 1: Recording haemostatic activity using TEG assay. […] Hereby, the effect on the endothelium of PGI2 can be employed in conjunction with treatment with antithrombotic agents such as Aspirin (ASA), platelet ADP—and a platelet inhibitor, such as GPIIb/IIIa receptor antagonists without increased risk of bleeding in this high-risk population.

With `CC#CCC(C)[C@H](O)/C=C/[C@@H]1[C@H]2c3cccc(CCCC(=O)O)c3O[C@H]2C[C@H]1O` (mixture of isomers) [Beraprost], the half time in series [1] was 35 to 40 min.
With `CSCCNc1nc(SCCC(F)(F)F)nc2c1ncn2[C@@H]1O[C@H](COP(=O)(O)OP(=O)(O)C(Cl)(Cl)P(=O)(O)O)[C@@H](O)[C@H]1O` [cangrelor], the half time in series [1] was 3 to 5 min.
With `CCCCC[C@H](O)/C=C/[C@@H]1[C@H]2C/C(=C/CCCC(=O)O)O[C@H]2C[C@H]1O` [prostacyclin], the “effect on platelet aggregation in whole blood as evaluated by MULTIPLATE” value in series [2] is on record as “does not affect platelet aggregation”. The “effect on thrombus formation as evaluated by viscoelastical haemostatic assays such as thrombelastography (TEG)” value in series [3] was “does not impair thrombus formation”.
Turning to `CC#CCC(C)[C@H](O)/C=C/[C@@H]1[C@H]2C/C(=C/CCCC(=O)O)C[C@H]2C[C@H]1O` (some centres unmarked) [Iloprost], the half time in series [1] was 20 to 30 min.
